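1) Cells in 96-well plates. 2) Compound, 48 h, 5 concentrations. 3) Linear interpolation between surrounding doses. 4) Unreached endpoint = highest concentration. Abbreviation: GI50, concentration required for 50% inhibition of growth.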 Activity calls are given as the source filed them. Rule as the data show it: active = GI50 up to about 1.1 µM and inactive = higher.
How the values were obtained:
Test in all cases: NCI anticancer screen, dose series, 48 h
SF-268 = test system: SF-268
OVCAR-3 = test system: OVCAR-3
M14 = test system: M14
Malme-3M = test system: Malme-3M
MDA-N = test system: MDA-N
RXF 393 = test system: RXF 393
SK-MEL-2 = test system: SK-MEL-2
A549 = test system: A549
IGROV-1 = test system: IGROV-1
SR = test system: SR
SK-MEL-28 = test system: SK-MEL-28
SW-620 = test system: SW-620
KM12 = test system: KM12
NCI-H226 = test system: NCI-H226
LOX IMVI = test system: LOX IMVI
HOP-92 = test system: HOP-92
MDA-MB-231 = test system: MDA-MB-231
786-0 = test system: 786-0
CAKI-1 = test system: CAKI-1

Measured: GI50

CCOC(=O)c1ccc(NCC#CCN2CCOCC2)cc1
inactive: SF-268 > 100 µM | OVCAR-3 > 100 µM | M14 29.7 µM | Malme-3M > 100 µM | MDA-N 29.4 µM | RXF 393 > 100 µM | SK-MEL-2 > 100 µM | A549 83.9 µM | IGROV-1 > 100 µM | SR > 100 µM | SK-MEL-28 > 100 µM | SW-620 > 100 µM | KM12 > 100 µM | NCI-H226 70.3 µM | LOX IMVI > 100 µM | HOP-92 > 100 µM | MDA-MB-231 > 100 µM | 786-0 > 100 µM

CCSc1nnc2c(-c3ccccc3)n[nH]c2n1
inactive: SF-268 49.1 µM | OVCAR-3 > 100 µM | M14 > 100 µM | MDA-N > 100 µM | CAKI-1 > 100 µM | RXF 393 > 100 µM | SK-MEL-2 > 100 µM | A549 > 100 µM | IGROV-1 > 100 µM | SR > 100 µM | SK-MEL-28 > 100 µM | SW-620 > 100 µM | KM12 > 100 µM | NCI-H226 > 100 µM | LOX IMVI > 100 µM | HOP-92 37.4 µM | MDA-MB-231 > 100 µM | 786-0 86.7 µM

O=C(c1ccccc1)N1CCC(CC2(c3cc4ccccc4[nH]3)OCCO2)CC1
inactive: SF-268 51.8 µM | OVCAR-3 > 100 µM | M14 18.5 µM | MDA-N 26.2 µM | CAKI-1 > 100 µM | RXF 393 76 µM | SK-MEL-2 30.7 µM | A549 68.5 µM | IGROV-1 42.2 µM | SR 33 µM | SK-MEL-28 19.4 µM | SW-620 19.5 µM | KM12 34.2 µM | NCI-H226 32.7 µM | LOX IMVI 17.2 µM | HOP-92 21.2 µM | MDA-MB-231 64.1 µM | 786-0 17.8 µM

CC(=O)C(=[N+]=[N-])C(=O)N(C)CCC#N
inactive: SF-268 > 10 µM | OVCAR-3 > 10 µM | M14 > 10 µM | Malme-3M > 10 µM | MDA-N > 10 µM | RXF 393 > 10 µM | SK-MEL-2 > 10 µM | A549 > 10 µM | IGROV-1 > 10 µM | SR > 10 µM | SK-MEL-28 > 10 µM | SW-620 > 10 µM | KM12 > 10 µM | NCI-H226 > 10 µM | LOX IMVI > 10 µM | HOP-92 > 10 µM | MDA-MB-231 > 10 µM | 786-0 > 10 µM

From ChEMBL document CHEMBL1201862, “PubChem BioAssay data set” (2004)
